Structures can show the parent of a compound that is named as a salt. Where two headings read alike, the source gives them in different places.

This is an account of results in patent US4605661A, “Aromastase inhibiting α,α-diarylimidazole-4(5)-propionitriles, α,α-diarylimidazole-4(5)-propionamides, and 4(5)-(2,2-diarylethyl)imidazoles” (Eli Lilly and Company, priority 1984, dated 1986).

The target of experiment [1] is T1, aromatase (Rattus norvegicus, UniProt P22443).
T1 construct: ovarian microsomes are obtained from rats treated with pregnant mares serum gonadotropin; from tissue; host or cells: ovarian microsomes from rats treated with pregnant mares serum gonadotropin
T1 sequence (P22443 1-508): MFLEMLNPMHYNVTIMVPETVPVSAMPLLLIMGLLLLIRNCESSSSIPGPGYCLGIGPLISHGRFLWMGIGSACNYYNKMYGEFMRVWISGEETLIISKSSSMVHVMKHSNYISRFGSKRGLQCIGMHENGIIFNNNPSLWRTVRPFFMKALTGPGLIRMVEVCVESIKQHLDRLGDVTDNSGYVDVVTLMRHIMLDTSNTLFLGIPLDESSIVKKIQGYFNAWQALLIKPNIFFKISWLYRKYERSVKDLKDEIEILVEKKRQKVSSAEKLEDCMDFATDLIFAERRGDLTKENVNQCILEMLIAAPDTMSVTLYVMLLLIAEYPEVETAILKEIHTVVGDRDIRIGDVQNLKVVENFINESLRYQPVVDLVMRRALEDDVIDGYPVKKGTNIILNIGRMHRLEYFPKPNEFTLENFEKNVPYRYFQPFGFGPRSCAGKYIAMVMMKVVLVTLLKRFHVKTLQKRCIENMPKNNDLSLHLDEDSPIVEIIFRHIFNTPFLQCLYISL
Description: Aromatase inhibition in the rat ovarian microsome assay. The experiment is classed as biochemical. The procedure: In this test system, ovarian microsomes are obtained from rats treated with pregnant mares serum gonadotropin. Test compounds are added to reaction vials containing 0.1 μM 4-androstene-3,17-dione, 100,000 dpm 1,2[^3 H]-androstenedione, the microsomes and a NADPH generating system. The concentrations of the inhibitors tested ranged between 0.005 and 10 μM.

The subject of experiment [2] is aromatization. As to the kind of experiment: Estrogen synthesis inhibition in rats: uterine weight. It counts as in vivo, rat (immature female Wistar). To be noted: 7 days, testosterone propionate treated. The procedure: (§1) Immature female Wistar rats (45-55 grams) were divided into control and test groups of 4-8 animals each. Test compounds were administered for seven days as a component of the diet. Control animals received diet without the test compound. Beginning on the fourth day of the test, all animals treated with the test compound and one half of the control animals were given a subcutaneous injection of 1.0 mg of testosterone propionate in corn oil. The remaining control animals received only an equivalent volume of corn oil. On the seventh day of the test, rats treated with testosterone propionate were injected subcutaneously with 100 μCi of [^3 H]-testosterone in 50 μl of 3:1 (v/v) saline-ethanol.
After two hours, the animals were killed by decapitation. Uteri were isolated, trimmed of extraneous connective tissue, and weighed. […] In the control animals treated with testosterone propionate, estrogens produced by aromatization stimulated the uterus resulting in an increase in weight.

In experiment [3] the test system is aromatization. Description: Estrogen synthesis inhibition in rats: ovarian steroid concentrations. The experiment is classed as in vivo, rat (immature female Wistar). To be noted: ovary, 7 days. The protocol: as §1
Ovaries from rats treated with [^3 H]-testosterone were excised, cleaned of extraneous tissue, and homogenized in 2.5 ml of a 1.0 mM potassium phosphate buffer containing 3.0 mM MgCl2.6H2 O, 320 mM sucrose, and 0.25% Triton X-100 (polyethylene glycol p-isooctyl phenyl ether, Rohm and Hass) at pH 6.5. The ovarian steroids were extracted with 1.5 ml of 9:1 (v/v) toluene/ethanol to which had been added 25 to 100 mcg each of unlabelled estradiol, estriol, and estrone, and approximately 1000 dpm of [^14 C]-estradiol. The samples were vortexed, centrifuged at 500×g for 10 minutes, and the organic phase was transferred to a conical vial. Two additional extractions were performed on the residue in the same way. The pooled organic extracts were evaporated for subsequent thin-layer chromatography.
Ovarian proteins were precipitated by the addition of 5.0 ml of ethanol to the remaining aqueous phase. After an overnight incubation at 4° C., the samples were centrifuged at 1500×g for 10 minutes. The supernatant was discarded and the pellet was dissolved in 0.3N potassium hydroxide. Protein was determined according to the method of Bradford, Analytical Biochemistry, 72, 248 (1976).
The organic residue from each above extraction was redissolved in 9:1 (v/v) dichloromethane/methanol. The solution of each sample was applied to separate silica gel thin layer chromatography plates which contained a fluorescent indicator. The plates were developed in the first dimension with 160:38:1.5:0.5 (v/v/v/v) dichloromethane/ethyl acetate/methanol/acetic acid to within 3 cm of the top of the plate. After air-drying, the plate was developed in the second dimension with 180:19:1 (v/v/v) dichloromethane/methanol/ammonium hydroxide. The plate was air-dried and viewed under 254 nm UV light.
The visible spots were marked and the plates were sprayed with primulin (0.001% in 4:1 v/v acetone/water) according to the method of Wright, J. Chromatography, 59, 220 (1971) which allowed for the identification of additional steroids under 365 nm UV light. The spots were scraped from the plate using a glass wool plugged Pasteur pipet attached to a vacuum line. The steroids were eluted directly into scintillation vials by the addition of 0.2 ml of dichloromethane followed by two washes each of 2.0 ml of methanol. The organic solvent was evaporated and 10.0 ml of scintillation fluid (Beckman Ready Solv-NA) was added to the vials. Samples were analyzed by liquid scintillation spectrometry. Corrections were made based on the recoveries of the [^14 C]-steroid. Steroid concentrations are expressed as femtomoles per milligram protein.

Experiment [4] relates to breast cancer. To be noted: Cancer Research, Vol. 42, Suppl. 8:3261s (1982); cited from earlier work.
Experiment [5] deals with DMBA-induced mammary tumors. Description: DMBA-induced mammary tumor inhibition. The experiment is classed as in vivo, rat (female Sprague-Dawley). To be noted: Test I, 20 mg/kg, once daily by gavage in corn oil. The procedure:
Mammary tumors were produced in female Sprague-Dawley rats which were 50-60 days old by the gavage administration of 20 mg of 7,12-dimethylbenz[α]anthracene (DMBA). About six weeks after DMBA administration, the mammary glands were palpated at weekly intervals for the appearance of tumors. Whenever one or more tumors appeared and were measurable in an animal, that animal was selected for experimentation. […] Each control and test group contained 8 animals. The test compound was administered in corn oil and administered once daily by gavage.
Every experiment included a group of control rats having tumors that were given corn oil vehicle by gavage. […] The area of each tumor was calculated by multiplying the shortest and longest diameters of the tumor. The treatment and measurement of animals continued for five weeks at which time the final areas of the tumors were determined. The change in the mean tumor area was determined, and the means change was analyzed for its significance using Dunnett's t-test.

The mark [6] stands for this setting: rat ovarian microsomes, substrate (androstenedione) 0.1 μM, read-out: EC50 (concentration required to achieve 50% inhibition of aromatase activity).
[7] abbreviates: Test II, 200 ppm in feed (approx. 20 mg/kg/day).
Setting [8] is: Test I, 30 ppm in feed (approx. 3 mg/kg/day).
Setting [9] is: Test I, 300 ppm in feed (approx. 30 mg/kg/day).

Regarding `N#CC(Cc1c[nH]cn1)(c1ccccc1)c1ccc(C(F)(F)F)cc1` (stereo not drawn) [α-phenyl-α-(4-trifluoromethylphenyl)-1H--imidazole-4(5)-propionitrile], in experiment [1] (setting [6]), the EC50 stood at 73 nM. Also, in experiment [2] (Test II, 200 ppm in feed (approx. 20 mg/kg/day), 5 animals, + p < 0.05 vs testosterone-treated control), the “Mean Uterine Weight” value is 142.2 mg. Also, in experiment [3] (setting [7]), the “Mean Steroid Concentration, estradiol” value was 1.01 femtomoles per milligram of protein; the “Mean Steroid Concentration, estriol” value is 0.31 femtomoles per milligram of protein; the “Mean Steroid Concentration, estrone” value is 0.00 femtomoles per milligram of protein.

On to `C[C@]12C=CC(=O)C=C1CC[C@@H]1[C@@H]2CC[C@]2(C)OC(=O)CC[C@@H]12` [testolactone], for which, in experiment [4], the “effect in treatment of breast cancer” value is reported as “beneficial effect”.

In turn, `c1ccc(C(Cc2c[nH]cn2)c2ccccc2)cc1` [4(5)-(2,2-diphenylethyl)imidazole, 4(5)-(2,2-Diphenylethyl)imidazole] showed an EC50 in experiment [1] of 94 nM.

Take `N#CC(Cc1c[nH]cn1)(c1ccccc1)c1cccnc1` (stereo not drawn) [α-[1-imidazol-4(5)-ylmethyl]-α-phenyl-3-pyridineacetonitrile dihydrochloride]: the EC50 in experiment [1] (setting [6]) is 560 nM.

For the compound `CCC1(c2ccc(N)cc2)CCC(=O)NC1=O` (centres unmarked) [aminoglutethimide], the “effect in treatment of breast cancer” value in experiment [4] was “beneficial effect”.

As for `NC(=O)C(Cc1c[nH]cn1)(c1ccccc1)c1ccccc1` [α,α-Diphenylimidazole-4-propionamide hydrochloride], the EC50 in experiment [1] (setting [6]) amounted to 118 nM.

For the compound `NC(=O)C(Cc1c[nH]cn1)(c1ccc(Cl)cc1)c1ccc(Cl)cc1` [α,α-Bis(4-chlorophenyl)-1H-imidazole-4(5)-propionamide hydrochloride], the EC50 in experiment [1] (setting [6]) was below 50 nM.

For `N#CC(Cc1c[nH]cn1)(c1ccccc1)c1ccccc1` [α,α-diphenylimidazole-4(5)-propionitrile, maleic acid salt], the EC50 in experiment [1] (setting [6]) was 165 nM.

As to `N#CC(Cc1c[nH]cn1)(c1ccccc1)c1cccc(Cl)c1` (stereo not drawn) [α-(3-chlorophenyl)-α-phenyl-imidazole-4(5)-propionitrile hydrochloride], in experiment [1] (setting [6]), the EC50 is 78 nM.

As to `N#CC(Cc1c[nH]cn1)(c1ccc(Cl)cc1)c1ccc(Cl)cc1` [α,α-bis(4-chlorophenyl)-imidazole-4(5)-propionitrile, maleic acid salt], in experiment [1] (setting [6]), the EC50 was found to be 62 nM. The “Mean Uterine Weight” value was 166.0 mg in experiment [2] (Test I, 30 ppm in feed (approx. 3 mg/kg/day), 4 animals) and 141.6 mg in experiment [2] (Test I, 300 ppm in feed (approx. 30 mg/kg/day), 5 animals, + p < 0.05 vs testosterone-treated control). Moreover, the “Mean Steroid Concentration, estradiol” value in experiment [3] (setting [8]) is 1.36 femtomoles per milligram of protein; in experiment [3] (setting [9]) it was 1.06 femtomoles per milligram of protein. The “Mean Steroid Concentration, estriol” value in experiment [3] (setting [8]) is on record as 0.72 femtomoles per milligram of protein; in experiment [3] (setting [9]), 0.23 femtomoles per milligram of protein. The “Mean Steroid Concentration, estrone” value in experiment [3] (setting [8]) is 0.11 femtomoles per milligram of protein; in experiment [3] (Test I, 300 ppm in feed (approx. 30 mg/kg/day), + p < 0.05 vs testosterone-treated control), 0.00 femtomoles per milligram of protein. In addition, the “Mean Tumor Area, Finish” value in experiment [5] (5 weeks, control 78.3 to 980.8, + p < 0.05 vs control) was 389.7 mm^2. Also, the “Mean Tumor Area, Start” value in experiment [5] (start of test (baseline)) stood at 67.0 mm^2.

In turn, `N#CC(Cc1c[nH]cn1)(c1ccccc1)c1ccc(Cl)cc1` (stereo not drawn) [α-(4-chlorophenyl)-α-phenyl-imidazole-4(5)-propionitrile, maleic acid salt] registered an EC50 in experiment [1] of 72 nM.

As to `COc1ccc(C(C#N)(Cc2c[nH]cn2)c2ccccc2)cc1` (stereo not drawn) [α-(4-methoxyphenyl)-α-phenyl-imidazole-4(5)-propionitrile, maleic acid salt], in experiment [1] (setting [6]), the EC50 turned out to be 180 nM.
